Here are results for 27 compounds from patent publication US20140120083A1, “TREATMENT OF CANCERS USING PI3 KINASE ISOFORM MODULATORS” (INFINITY PHARMACEUTICALS, INC., priority 2012, published 2014).

By IC50 is commonly meant the concentration that inhibits the measured activity by half.

What all share (type): biochemical
The target in assay [1] is T1, PI3K α (Homo sapiens, UniProt P42336).
T1 construct: purchased Upstate
The assay can be described thus: In vitro IC50, PI3K α. The text has this:
(§1) An exemplary system is PI 3-Kinase (human) HTRF™ Assay from Upstate.

The target of assay [2] is PI3K β (Homo sapiens, UniProt P42338). The assay can be described thus: In vitro IC50, PI3K β.
Description: as §1

Assay [3] concerns the target PI3K δ (Homo sapiens, UniProt O00329). Briefly: In vitro IC50, PI3K δ. The arrangement: purchased Upstate.
Description: as §1

Assay [4] addresses T2, PI3K γ (Homo sapiens, UniProt P48736).
T2 construct: purchased Sigma
Briefly: In vitro IC50, PI3K γ.
Description: as §1

Sequence of PI3K β (P42338 whole entry): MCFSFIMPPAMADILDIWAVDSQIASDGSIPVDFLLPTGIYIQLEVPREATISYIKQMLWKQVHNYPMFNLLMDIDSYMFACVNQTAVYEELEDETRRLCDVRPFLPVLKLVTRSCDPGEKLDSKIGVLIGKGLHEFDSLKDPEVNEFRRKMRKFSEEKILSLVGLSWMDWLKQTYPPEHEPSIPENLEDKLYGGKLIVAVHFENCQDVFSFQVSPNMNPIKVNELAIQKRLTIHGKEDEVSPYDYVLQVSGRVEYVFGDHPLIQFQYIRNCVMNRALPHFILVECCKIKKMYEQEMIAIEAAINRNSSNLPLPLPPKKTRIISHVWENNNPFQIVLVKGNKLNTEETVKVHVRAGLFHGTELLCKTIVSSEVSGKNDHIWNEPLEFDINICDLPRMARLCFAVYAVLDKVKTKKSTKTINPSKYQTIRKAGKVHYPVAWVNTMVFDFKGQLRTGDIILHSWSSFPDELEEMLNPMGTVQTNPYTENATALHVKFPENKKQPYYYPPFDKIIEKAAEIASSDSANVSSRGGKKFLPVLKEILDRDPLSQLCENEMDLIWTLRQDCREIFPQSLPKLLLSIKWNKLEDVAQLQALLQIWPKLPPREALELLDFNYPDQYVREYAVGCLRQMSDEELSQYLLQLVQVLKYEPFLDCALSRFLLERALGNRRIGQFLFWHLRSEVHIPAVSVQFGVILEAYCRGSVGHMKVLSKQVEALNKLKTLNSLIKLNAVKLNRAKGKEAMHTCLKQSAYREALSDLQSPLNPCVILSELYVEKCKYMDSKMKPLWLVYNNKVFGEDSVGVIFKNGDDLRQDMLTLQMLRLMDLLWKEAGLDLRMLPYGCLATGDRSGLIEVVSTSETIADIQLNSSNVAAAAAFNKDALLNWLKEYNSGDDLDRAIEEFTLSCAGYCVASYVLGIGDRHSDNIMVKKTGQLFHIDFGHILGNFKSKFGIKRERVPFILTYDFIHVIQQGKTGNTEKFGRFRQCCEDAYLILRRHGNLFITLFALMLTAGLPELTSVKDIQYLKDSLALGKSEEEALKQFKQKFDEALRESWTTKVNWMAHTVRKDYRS
T2 sequence (P48736 whole entry): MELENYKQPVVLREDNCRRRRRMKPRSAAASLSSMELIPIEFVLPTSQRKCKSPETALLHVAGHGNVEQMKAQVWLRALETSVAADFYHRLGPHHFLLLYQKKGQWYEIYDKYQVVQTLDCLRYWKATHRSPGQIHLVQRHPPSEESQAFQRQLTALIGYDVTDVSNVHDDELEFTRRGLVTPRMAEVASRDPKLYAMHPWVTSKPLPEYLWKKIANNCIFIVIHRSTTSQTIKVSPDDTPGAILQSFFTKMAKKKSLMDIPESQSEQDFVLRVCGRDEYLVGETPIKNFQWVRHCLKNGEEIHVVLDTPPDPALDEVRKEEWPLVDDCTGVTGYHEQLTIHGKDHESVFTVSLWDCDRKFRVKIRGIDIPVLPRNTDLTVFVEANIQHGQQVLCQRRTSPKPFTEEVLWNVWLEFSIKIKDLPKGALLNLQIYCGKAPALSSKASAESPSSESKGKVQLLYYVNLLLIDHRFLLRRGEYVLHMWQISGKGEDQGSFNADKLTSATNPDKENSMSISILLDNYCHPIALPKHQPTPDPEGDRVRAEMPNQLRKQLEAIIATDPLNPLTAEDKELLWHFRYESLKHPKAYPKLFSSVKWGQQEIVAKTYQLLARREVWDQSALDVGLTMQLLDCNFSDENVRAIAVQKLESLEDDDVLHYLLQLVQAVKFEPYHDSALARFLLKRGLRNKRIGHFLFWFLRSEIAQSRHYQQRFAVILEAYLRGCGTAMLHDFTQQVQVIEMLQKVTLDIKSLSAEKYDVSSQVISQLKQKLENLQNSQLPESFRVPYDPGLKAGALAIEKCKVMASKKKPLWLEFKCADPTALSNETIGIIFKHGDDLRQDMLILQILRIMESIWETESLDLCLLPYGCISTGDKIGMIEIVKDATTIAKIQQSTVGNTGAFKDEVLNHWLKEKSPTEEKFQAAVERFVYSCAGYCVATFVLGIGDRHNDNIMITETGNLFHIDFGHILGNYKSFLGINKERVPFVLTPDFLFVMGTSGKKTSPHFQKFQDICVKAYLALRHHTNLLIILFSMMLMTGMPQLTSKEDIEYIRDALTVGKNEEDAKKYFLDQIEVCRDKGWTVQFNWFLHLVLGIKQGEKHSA
T1 sequence (P42336 whole entry): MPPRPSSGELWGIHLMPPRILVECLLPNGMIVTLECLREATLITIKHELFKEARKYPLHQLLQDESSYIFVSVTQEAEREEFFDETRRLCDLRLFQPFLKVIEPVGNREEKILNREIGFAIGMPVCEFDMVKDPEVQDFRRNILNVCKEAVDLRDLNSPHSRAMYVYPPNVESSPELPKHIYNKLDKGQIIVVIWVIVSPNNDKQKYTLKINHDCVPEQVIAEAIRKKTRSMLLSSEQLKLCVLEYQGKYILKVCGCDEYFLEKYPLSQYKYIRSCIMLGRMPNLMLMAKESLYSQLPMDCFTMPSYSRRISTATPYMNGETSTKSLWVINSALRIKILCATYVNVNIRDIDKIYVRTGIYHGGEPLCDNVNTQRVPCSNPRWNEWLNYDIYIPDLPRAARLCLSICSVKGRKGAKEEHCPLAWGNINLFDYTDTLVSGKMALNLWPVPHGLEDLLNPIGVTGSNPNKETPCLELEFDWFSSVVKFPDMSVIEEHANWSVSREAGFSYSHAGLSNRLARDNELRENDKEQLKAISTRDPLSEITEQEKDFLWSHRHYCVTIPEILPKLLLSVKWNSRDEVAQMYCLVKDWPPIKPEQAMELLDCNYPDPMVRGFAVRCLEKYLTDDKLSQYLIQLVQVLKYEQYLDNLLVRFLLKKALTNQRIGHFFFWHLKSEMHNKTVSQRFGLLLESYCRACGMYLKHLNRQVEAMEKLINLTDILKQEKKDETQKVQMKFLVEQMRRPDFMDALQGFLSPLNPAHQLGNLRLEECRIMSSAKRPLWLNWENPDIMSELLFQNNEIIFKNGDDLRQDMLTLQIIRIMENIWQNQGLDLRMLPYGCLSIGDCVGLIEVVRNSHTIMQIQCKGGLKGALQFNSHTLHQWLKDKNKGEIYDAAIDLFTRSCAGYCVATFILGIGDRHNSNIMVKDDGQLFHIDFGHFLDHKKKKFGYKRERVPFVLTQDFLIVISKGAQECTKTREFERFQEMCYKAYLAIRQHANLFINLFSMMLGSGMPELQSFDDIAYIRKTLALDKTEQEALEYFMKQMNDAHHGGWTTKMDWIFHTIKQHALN
T1 sequence (P27986 whole entry partner): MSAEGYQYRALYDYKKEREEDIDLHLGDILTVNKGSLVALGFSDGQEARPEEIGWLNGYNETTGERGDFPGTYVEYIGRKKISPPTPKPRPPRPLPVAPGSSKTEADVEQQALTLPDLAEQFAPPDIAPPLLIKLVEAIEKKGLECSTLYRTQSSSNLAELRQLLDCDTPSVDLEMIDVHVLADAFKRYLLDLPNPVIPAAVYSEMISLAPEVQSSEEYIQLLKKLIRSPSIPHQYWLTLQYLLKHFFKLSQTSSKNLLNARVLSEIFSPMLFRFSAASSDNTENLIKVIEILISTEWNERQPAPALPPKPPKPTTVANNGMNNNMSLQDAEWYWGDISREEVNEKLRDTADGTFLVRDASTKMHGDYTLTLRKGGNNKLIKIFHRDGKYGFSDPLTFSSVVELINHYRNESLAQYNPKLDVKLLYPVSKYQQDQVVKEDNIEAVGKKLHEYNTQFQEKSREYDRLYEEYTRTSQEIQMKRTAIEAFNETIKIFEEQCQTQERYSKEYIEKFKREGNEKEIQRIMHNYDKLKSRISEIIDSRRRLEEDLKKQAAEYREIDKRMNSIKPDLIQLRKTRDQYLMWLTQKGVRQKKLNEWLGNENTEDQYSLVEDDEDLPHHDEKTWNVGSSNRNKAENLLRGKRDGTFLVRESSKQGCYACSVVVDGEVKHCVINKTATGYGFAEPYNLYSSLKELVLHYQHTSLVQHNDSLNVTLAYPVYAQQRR
Sequence of PI3K δ (O00329 whole entry): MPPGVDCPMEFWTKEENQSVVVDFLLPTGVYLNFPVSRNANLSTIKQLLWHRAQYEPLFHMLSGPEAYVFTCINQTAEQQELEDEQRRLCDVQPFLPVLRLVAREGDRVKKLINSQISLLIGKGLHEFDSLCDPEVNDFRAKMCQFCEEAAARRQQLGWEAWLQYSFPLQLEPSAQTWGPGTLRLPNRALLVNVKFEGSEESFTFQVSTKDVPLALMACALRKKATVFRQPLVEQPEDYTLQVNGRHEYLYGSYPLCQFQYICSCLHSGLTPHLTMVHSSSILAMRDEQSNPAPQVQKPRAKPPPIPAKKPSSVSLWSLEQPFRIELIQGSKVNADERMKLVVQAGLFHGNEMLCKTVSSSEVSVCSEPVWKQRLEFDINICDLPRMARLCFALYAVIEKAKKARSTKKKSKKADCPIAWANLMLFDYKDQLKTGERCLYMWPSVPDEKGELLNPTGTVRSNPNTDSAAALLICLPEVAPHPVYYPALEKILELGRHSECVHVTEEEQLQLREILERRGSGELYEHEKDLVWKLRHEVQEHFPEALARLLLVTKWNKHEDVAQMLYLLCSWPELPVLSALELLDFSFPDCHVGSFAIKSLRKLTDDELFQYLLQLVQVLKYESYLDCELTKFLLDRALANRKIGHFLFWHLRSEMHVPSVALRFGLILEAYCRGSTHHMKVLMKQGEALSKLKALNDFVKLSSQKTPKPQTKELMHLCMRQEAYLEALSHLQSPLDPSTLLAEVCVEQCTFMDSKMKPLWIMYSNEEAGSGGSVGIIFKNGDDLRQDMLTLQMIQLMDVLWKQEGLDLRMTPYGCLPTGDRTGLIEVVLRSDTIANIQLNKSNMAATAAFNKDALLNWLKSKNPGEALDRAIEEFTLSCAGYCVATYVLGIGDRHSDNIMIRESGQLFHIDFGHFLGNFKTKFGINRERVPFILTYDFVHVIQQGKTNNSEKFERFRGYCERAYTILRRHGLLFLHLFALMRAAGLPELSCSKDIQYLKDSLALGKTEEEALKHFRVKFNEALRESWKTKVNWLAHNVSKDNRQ
Sequence of PI3K δ (P27986 whole entry partner): as the sequence (P27986 whole entry partner) above

With `Cc1cccc2cc(Cn3nc(-c4cc(O)cc(F)c4)c4c(N)ncnc43)n(C3CC3)c(=O)c12` [Compound 101], the IC50 was below 1000 nM in assay [1], below 100 nM in assay [2], below 100 nM in assay [3] and below 100 nM in assay [4].

As to `Cc1ccccc1-n1c(Cn2nc(-c3ccc(Cl)c(O)c3)c3c(N)ncnc32)cc2cccc(C)c2c1=O` [Compound 23], the IC50 was above 10000 nM in assay [1], below 10000 nM in assay [2], below 100 nM in assay [3] and below 100 nM in assay [4].

In the case of `Cc1cccc2cc([C@H](C)Nc3ncnc4[nH]cc(C#N)c34)n(C3CC3)c(=O)c12` [Compound 289], the IC50 in assay [1] was below 1000 nM; in assay [2] it was below 100 nM; in assay [3] it was below 100 nM; in assay [4] it was below 100 nM.

For the compound `Cc1cccc2cc(Cn3nc(-c4ccc(F)c(O)c4)c4c(N)ncnc43)n(C(C)C)c(=O)c12` [Compound 67], the concentration for half-maximal inhibition (IC50) was above 10000 nM in assay [1], below 10000 nM in assay [2], below 100 nM in assay [3] and below 100 nM in assay [4].

With `Cc1cccc2cc(Cn3nc(-c4ccc(O)c(Cl)c4)c4c(N)ncnc43)n(-c3ccccc3F)c(=O)c12` [Compound 26], the half-inhibitory concentration (IC50) in assay [1] was above 10000 nM; in assay [2] it was above 10000 nM; in assay [3], below 1000 nM; in assay [4], below 100 nM.

As for `CC(=O)Nc1nc2ccc(-c3nn(Cc4cc5cccc(C)c5c(=O)n4-c4ccccc4C)c4ncnc(N)c34)cc2[nH]1` [Compound 296], the IC50 was below 10000 nM in assay [1], below 10000 nM in assay [2], below 100 nM in assay [3] and below 100 nM in assay [4].

For the compound `Cc1cccc2cc(Cn3nc(C#CCO)c4c(N)ncnc43)n(-c3ccccc3F)c(=O)c12` [Compound 8], the IC50 is above 10000 nM in assay [1], above 10000 nM in assay [2], below 100 nM in assay [3] and below 1000 nM in assay [4].

As for `CCc1ccccc1-n1c(Cn2nc(-c3cccc(O)c3)c3c(N)ncnc32)cc2cccc(C)c2c1=O` [Compound 88], the half-maximal inhibitory concentration (IC50) is above 10000 nM in assay [1], above 10000 nM in assay [2], below 100 nM in assay [3] and below 100 nM in assay [4].

In the case of `Cc1cccc2cc(Cn3nc(-c4cccc(F)c4)c4c(N)ncnc43)n(-c3ccccc3F)c(=O)c12` [Compound 40], the concentration for half-maximal inhibition (IC50) is above 10000 nM in assay [1], above 10000 nM in assay [2], below 10000 nM in assay [3] and below 10000 nM in assay [4].

`CCC(Nc1ncnc2[nH]cnc12)c1cc2cccc(C)c2c(=O)n1C1CCN(C)CC1` (stereo not drawn) [Compound 228]: the IC50 was above 10000 nM in assay [1], below 10000 nM in assay [2], below 1000 nM in assay [3] and above 10000 nM in assay [4].

Consider `Cc1cccc2cc(C(C)Nc3ncnc4[nH]cnc34)n(-c3ccccc3F)c(=O)c12` (stereo not drawn) [Compound 167], for which the IC50 in assay [1] is above 10000 nM; in assay [2], below 10000 nM; in assay [3], below 100 nM; in assay [4] it was below 100 nM.

As to `Cc1cccc2cc(Cn3nc(-c4cccc(O)c4)c4c(N)ncnc43)n(-c3ccccc3C(C)C)c(=O)c12` [Compound 82], the IC50 in assay [1] was above 10000 nM; in assay [2], below 1000 nM; in assay [3] it was below 100 nM; in assay [4], below 100 nM.

Regarding `Cc1cccc2cc(Cn3nc(-c4cccc(O)c4)c4c(N)ncnc43)n(C(C)C)c(=O)c12` [Compound 62], the IC50 was above 10000 nM in assay [1], below 1000 nM in assay [2], below 100 nM in assay [3] and below 100 nM in assay [4].

As to `Cc1cccc2cc(Cn3nc(/C=C4/SC(=O)NC4=O)c4c(N)ncnc43)n(-c3ccccc3F)c(=O)c12` [Compound 171], the IC50 was below 10000 nM in assay [1], below 10000 nM in assay [2], below 100 nM in assay [3] and below 100 nM in assay [4].

Turning to `Cc1cccc2cc(Cn3nc(-c4cccc(O)c4)c4c(N)ncnc43)n(C3CCCC3)c(=O)c12` [Compound 58], the 50% inhibitory concentration (IC50) in assay [1] is above 10000 nM; in assay [2], below 10000 nM; in assay [3], below 100 nM; in assay [4], below 1000 nM.

Take `Cc1ccccc1-n1c(Cn2nc(C#C[C@@H](C)O)c3c(N)ncnc32)cc2cccc(F)c2c1=O` [Compound 43]: the IC50 in assay [1] was above 10000 nM; in assay [2], above 10000 nM; in assay [3], below 1000 nM; in assay [4], above 10000 nM.

`Cc1cccc2cc(Cn3nc(-c4ccc5nc(N)sc5c4)c4c(N)ncnc43)n(-c3ccccc3)c(=O)c12` [Compound 252]: the IC50 was below 100 nM in assay [1], below 1000 nM in assay [2], below 100 nM in assay [3] and below 100 nM in assay [4].

As for `Cc1ccccc1-n1c(Cn2nc(-c3cc(O)cc(F)c3)c3c(N)ncnc32)cc2cccc(F)c2c1=O` [Compound 55], the IC50 in assay [1] was above 10000 nM; in assay [2], below 10000 nM; in assay [3], below 100 nM; in assay [4], below 1000 nM.

Turning to `Cc1ccccc1-n1c(Cn2nc(C(=O)NO)c3c(N)ncnc32)cc2cccc(C)c2c1=O` [Compound 300], the IC50 is above 10000 nM in assay [1], below 10000 nM in assay [2], below 1000 nM in assay [3] and below 1000 nM in assay [4].

As for `CCC(Nc1ncnc2[nH]cnc12)c1cc2cccc(C)c2c(=O)n1-c1ccc(F)cc1` (stereo not drawn) [Compound 223], the IC50 in assay [1] was below 10000 nM; in assay [2], below 10000 nM; in assay [3], below 100 nM; in assay [4], below 100 nM.

With `CCN(Cc1cc2cccc(C)c2c(=O)n1-c1ccccc1C)c1ncnc2[nH]cnc12` [Compound 186], the IC50 in assay [1] is above 10000 nM; in assay [2] it was above 10000 nM; in assay [3], below 10000 nM; in assay [4], below 10000 nM.

As to `Cc1ccccc1-n1c(Cn2nc(CCC(=O)N3CCOCC3)c3c(N)ncnc32)cc2cccc(C)c2c1=O` [Compound 193], the half-maximal inhibitory concentration (IC50) is above 10000 nM in assay [1], above 10000 nM in assay [2], below 10000 nM in assay [3] and above 10000 nM in assay [4].

`Cc1cccc2cc([C@H](C)Nc3ncnc4[nH]cnc34)n(-c3ccc(F)cc3)c(=O)c12` [Compound 260]: the IC50 was below 1000 nM in assay [1], below 100 nM in assay [2], below 100 nM in assay [3] and below 100 nM in assay [4].

In the case of `Cc1cccc2cc([C@H](C)Nc3ncnc4[nH]cnc34)n(-c3cccc(F)c3)c(=O)c12` [Compound 290], the IC50 is above 10000 nM in assay [1], below 1000 nM in assay [2], below 100 nM in assay [3] and below 100 nM in assay [4].

For `CC(=O)Nc1nc2ccc(-c3nn(Cc4cc5cccc(C)c5c(=O)n4-c4ccccc4)c4ncnc(N)c34)cc2s1` [Compound 177], the IC50 in assay [1] was below 1000 nM; in assay [2], below 10000 nM; in assay [3] it was below 100 nM; in assay [4], below 100 nM.

Regarding `Cc1cccc2cc([C@H](C)Nc3nc(N)ncc3Cl)n(C3CC3)c(=O)c12` [Compound 267], the IC50 in assay [1] was above 10000 nM; in assay [2], below 1000 nM; in assay [3], below 100 nM; in assay [4] it was below 1000 nM.

Turning to `Cc1cccc2cc([C@H](C)Nc3ncnc4[nH]cc(C#N)c34)n(-c3ccccc3)c(=O)c12` [Compound 264], the IC50 is below 1000 nM in assay [1], below 100 nM in assay [2], below 100 nM in assay [3] and below 100 nM in assay [4].
